The source of these data is US7767664B2, “Plant growth regulation” (Bayer CropScience AG, priority 2004, dated 2010).

Molecules are shown by their SMILES.

For test [1], the system named is maize (Zea mays, variety “LORENZO”). As to the kind of experiment: Root growth assay, maize seed treatment. Particulars: Root Growth of 100 is set as the standard, wet root weight 16 days post treatment. The class given is in vivo. The source says:
Plant roots are a highly proliferative tissue that allows an easy accessible, cheap and short term screening method for plant growth regulators. […] By using this root assay one is enabled to determine the effect of a seed treatment to root growth and/or germination and/or changes in habitat of germinated plants in order to identify the possible use as a yield enhancer. Two seeds of wheat (Triticum aestivum, variety “TRISO”) or 1 seed of maize (Zea mays, variety “LORENZO”) per hole in a plastic tray which contains an architecture of 8×13 holes were placed on compost soil covered with sand. […] Six replicates in a row of each compound and concentration were done. The outer rim of the above defined plastic tray was untreated to avoid false negative effects and the middle row (No. 7) was used as untreated control. The treated seeds were allowed to dry for approx. 4 hours and subsequently covered with sand and watered. The trays were stored in climate chambers with 14 hours lighting at a temperature of 24° C. (±2) at daytime and 16° C. (±2) at night and relative humidity (rH) of 60% and daily watered. Assessments were done 16 (±2) days post treatment by counting the germinated plants and assessing the phytotoxicity symptoms and percentage. In addition, the roots were washed out and the shoots were cut directly above the seed and the wet roots were placed on dry paper towels for approximately 30 minutes and weighted afterwards. This procedure provides a similar grade of moisture to the roots so that a comparison of the weights is possible.

In test [2] the test system is wheat (Triticum aestivum, variety “TRISO”). As to the kind of experiment: Root growth assay, wheat seed treatment. The class given is in vivo. To be noted: Root Growth of 100 is set as the standard, wet root weight 16 days post treatment. The source says: Plant roots are a highly proliferative tissue that allows an easy accessible, cheap and short term screening method for plant growth regulators. The results obtained can easily be transferred to the overall effects on a plant of plant growth regulators identified by such a system. By using this root assay one is enabled to determine the effect of a seed treatment to root growth and/or germination and/or changes in habitat of germinated plants in order to identify the possible use as a yield enhancer. Two seeds of wheat (Triticum aestivum, variety “TRISO”) or 1 seed of maize (Zea mays, variety “LORENZO”) per hole in a plastic tray which contains an architecture of 8×13 holes were placed on compost soil covered with sand. These seeds were treated with 100 μl/hole, which creates an application volume of approx. 1200 l/ha, of a compound solution at active ingredient rates equivalent to 100, 10 and 1 g a.i./ha of each compound using an robotic application system (Lizzy Spray Robotics). Six replicates in a row of each compound and concentration were done. The outer rim of the above defined plastic tray was untreated to avoid false negative effects and the middle row (No. 7) was used as untreated control. The treated seeds were allowed to dry for approx. 4 hours and subsequently covered with sand and watered. The trays were stored in climate chambers with 14 hours lighting at a temperature of 24° C. (±2) at daytime and 16° C. (±2) at night and relative humidity (rH) of 60% and daily watered. Assessments were done 16 (±2) days post treatment by counting the germinated plants and assessing the phytotoxicity symptoms and percentage. In addition, the roots were washed out and the shoots were cut directly above the seed and the wet roots were placed on dry paper towels for approximately 30 minutes and weighted afterwards. This procedure provides a similar grade of moisture to the roots so that a comparison of the weights is possible.
The effects observed concerning Root Growth given in column 2 (Root Growth of “100” is set as the standard) are directed to concentrations that are equivalent to 100, 10, 1 g a.i./ha, each.

`COc1cc2c(cc1OC)C(=O)CCC(=O)N2` [Compound 3.2, 7,8-Dimethoxy-1H-benzazepine-2,5 (3H, 4H)-dione]: the “Root Growth” value in test [1] (1 g a.i./ha) was 96; in test [1] (10 g a.i./ha) it was 89; in test [1] (100 g a.i./ha), 123; in test [2] (1 g a.i./ha), 133; in test [2] (10 g a.i./ha), 131; in test [2] (100 g a.i./ha), 98.
`O=C1CCC(=O)c2ccccc2N1` [Compound 3.1]: the “Root Growth” value came to 86 in test [1] (1 g a.i./ha); 150 in test [1] (10 g a.i./ha); 86 in test [1] (100 g a.i./ha); 98 in test [2] (1 g a.i./ha); 125 in test [2] (10 g a.i./ha); 135 in test [2] (100 g a.i./ha).
Turning to `CCNC(=S)NN=C1CCC(=O)Nc2cc(OC)c(OC)cc21` [Compound 4.5], the results for the “Root Growth” value in test [2] (1 g a.i./ha), in test [2] (10 g a.i./ha) and in test [2] (100 g a.i./ha) were 149, 106 and 79, respectively.
As for `O=C1CCC(=O)c2cc(Cl)ccc2N1` [Compound 3.4], the “Root Growth” value in test [1] (1 g a.i./ha) was 85; in test [1] (10 g a.i./ha), 121; in test [1] (100 g a.i./ha), 144; in test [2] (1 g a.i./ha), 125; in test [2] (10 g a.i./ha), 126; in test [2] (100 g a.i./ha), 195.
As to `O=C1CCC(=NNc2cc(Cl)cc(Cl)c2)c2cc(Br)ccc2N1` [Compound 4.1], the “Root Growth” value in test [1] (1 g a.i./ha) turned out to be 131; in test [1] (10 g a.i./ha), 102; in test [1] (100 g a.i./ha) it was 136.
